Values after ≈ are worked out from the molar mass of the structure shown. One block for each molecule: values may come before it.
Experiments:
[1] = molecular target: Tyrosine-protein kinase SYK (Homo sapiens, UniProt P43405)
PBMC = experiment: Suppression of IL2 production in human PBMC after 24 hrs by ELISA
[2] = molecular target: T1, Tyrosine-protein kinase ZAP-70 (Homo sapiens, UniProt P43403); experiment: Inhibition of human ZAP70
T1 sequence (P43403 whole entry): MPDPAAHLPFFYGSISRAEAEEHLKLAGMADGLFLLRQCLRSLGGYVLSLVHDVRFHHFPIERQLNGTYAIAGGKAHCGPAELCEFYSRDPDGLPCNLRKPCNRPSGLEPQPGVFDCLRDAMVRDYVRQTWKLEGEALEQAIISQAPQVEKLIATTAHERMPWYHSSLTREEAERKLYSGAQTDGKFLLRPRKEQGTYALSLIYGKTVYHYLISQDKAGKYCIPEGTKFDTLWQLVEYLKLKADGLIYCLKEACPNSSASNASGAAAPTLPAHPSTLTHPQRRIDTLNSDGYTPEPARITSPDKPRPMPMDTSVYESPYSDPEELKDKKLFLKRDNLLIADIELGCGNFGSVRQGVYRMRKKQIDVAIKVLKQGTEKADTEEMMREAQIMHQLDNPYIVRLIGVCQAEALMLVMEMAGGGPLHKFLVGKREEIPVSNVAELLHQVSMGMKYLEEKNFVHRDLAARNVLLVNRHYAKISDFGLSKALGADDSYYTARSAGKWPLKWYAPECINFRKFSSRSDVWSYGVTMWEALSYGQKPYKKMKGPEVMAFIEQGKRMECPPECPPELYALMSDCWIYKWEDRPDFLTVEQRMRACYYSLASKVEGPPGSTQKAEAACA

[3] = molecular target: Protein kinase C beta type (Homo sapiens, UniProt P05771)
Sequence of Protein kinase C beta type (P05771 whole entry): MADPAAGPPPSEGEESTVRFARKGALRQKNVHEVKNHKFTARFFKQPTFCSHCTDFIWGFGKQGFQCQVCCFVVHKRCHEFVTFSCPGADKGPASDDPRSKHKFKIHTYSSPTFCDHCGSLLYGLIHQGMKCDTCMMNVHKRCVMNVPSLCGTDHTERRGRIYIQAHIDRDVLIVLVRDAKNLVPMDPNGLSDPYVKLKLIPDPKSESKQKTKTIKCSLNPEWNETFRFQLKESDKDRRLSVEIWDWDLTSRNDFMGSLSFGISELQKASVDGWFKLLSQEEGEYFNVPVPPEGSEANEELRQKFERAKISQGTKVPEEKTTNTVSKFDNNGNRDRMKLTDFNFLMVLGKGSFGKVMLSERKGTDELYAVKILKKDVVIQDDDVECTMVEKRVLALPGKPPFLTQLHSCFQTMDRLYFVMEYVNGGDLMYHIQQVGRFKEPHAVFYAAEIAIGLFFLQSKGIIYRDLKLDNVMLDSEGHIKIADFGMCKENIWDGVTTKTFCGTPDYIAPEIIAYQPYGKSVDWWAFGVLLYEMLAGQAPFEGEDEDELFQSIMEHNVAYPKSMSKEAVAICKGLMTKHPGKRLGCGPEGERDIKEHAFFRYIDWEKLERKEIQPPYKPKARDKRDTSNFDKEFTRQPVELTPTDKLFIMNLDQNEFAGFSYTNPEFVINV

[4] = molecular target: Tyrosine-protein kinase Lck (Homo sapiens, UniProt P06239)
Sequence of Tyrosine-protein kinase Lck (P06239 whole entry): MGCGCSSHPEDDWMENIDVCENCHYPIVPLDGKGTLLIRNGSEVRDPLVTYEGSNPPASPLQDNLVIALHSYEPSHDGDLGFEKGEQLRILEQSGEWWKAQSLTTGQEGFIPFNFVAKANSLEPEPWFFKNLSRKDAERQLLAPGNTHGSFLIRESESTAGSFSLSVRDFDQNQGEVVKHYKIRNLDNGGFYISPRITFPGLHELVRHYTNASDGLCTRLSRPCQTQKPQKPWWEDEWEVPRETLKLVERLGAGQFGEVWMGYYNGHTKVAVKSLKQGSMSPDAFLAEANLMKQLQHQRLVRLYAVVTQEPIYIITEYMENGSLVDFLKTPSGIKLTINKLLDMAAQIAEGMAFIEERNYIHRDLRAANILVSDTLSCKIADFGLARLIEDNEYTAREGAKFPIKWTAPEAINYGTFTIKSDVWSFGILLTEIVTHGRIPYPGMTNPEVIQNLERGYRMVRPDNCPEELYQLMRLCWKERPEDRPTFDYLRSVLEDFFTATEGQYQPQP

[5] = Aqueous solubility of the compound; format: physicochemical; conditions: water
Blood = experiment: Suppression of IL2 production in human whole blood after 24 hrs by ELISA

IC50 [1]: 15200 nM
Structure (SMILES): COc1cc(Nc2nc(N[C@H]3CCCC[C@H]3N)n3c(-c4ccccc4)nnc3c2C(N)=O)cc(OC)c1 (relative stereo)

IC50 [1]: 150 nM
Structure (SMILES): COc1cc(Nc2nc(NCC(C)(C)N)n3cnnc3c2C(N)=O)cc(OC)c1

IC50 [1]: 7700 nM
Structure (SMILES): COc1cc(Nc2nc(NCCCN)n3cnnc3c2C(N)=O)cc(OC)c1

IC50 [1]: 50 nM
Structure (SMILES): COc1cc(Nc2nc(N[C@H]3CCCC[C@H]3N)n3nc(-c4ccccc4Cl)nc3c2C(N)=O)cc(OC)c1 (relative stereo)
IC50 (PBMC): 1760 nM

IC50 [1]: 79100 nM
Structure (SMILES): COc1cc(Nc2nc(NCC(=O)OC(C)(C)C)n3cnnc3c2C(N)=O)cc(OC)c1

IC50 [1]: 9 nM
Structure (SMILES): COc1cc(Nc2nc(NCCN)n3cnnc3c2C(N)=O)cc(OC)c1

Further lines, the molecule ahead of its results:

Structure (SMILES): COc1cc(Nc2nc(NCCO)n3cnnc3c2C(N)=O)cc(OC)c1
IC50 [1]: 6100 nM

Structure (SMILES): COc1cc(Nc2nc(N[C@H]3CCCC[C@H]3N)n3ncnc3c2C(N)=O)cc(OC)c1 (relative stereo)
IC50 [1]: 4 nM
IC50 [2]: 330 nM
IC50 [3]: 2660 nM
IC50 [4]: 590 nM
solubility [5]: 42 µg/mL (≈ 98.5 µM)

Structure (SMILES): COc1cc(Nc2nc(N[C@H]3CCCC[C@H]3N)n3nc(-c4ccccc4)nc3c2C(N)=O)cc(OC)c1 (relative stereo)
IC50 [1]: 83 nM
IC50 (Blood): 2000 nM
IC50 (PBMC): 210 nM
solubility [5]: 1.2 µg/mL (≈ 2.39 µM)

Structure (SMILES): COc1cc(Nc2nc(N[C@H]3CCCC[C@H]3N)n3cnnc3c2C(N)=O)cc(OC)c1 (relative stereo)
IC50 [1]: 9 nM
IC50 [2]: 120 nM
IC50 [3]: 680 nM
IC50 [4]: 180 nM
solubility [5]: 351 µg/mL (≈ 823 µM)

Structure (SMILES): COc1cc(Nc2nc(N[C@H]3CCCC[C@H]3N)n3nc(-c4cccc(OC)c4)nc3c2C(N)=O)cc(OC)c1 (relative stereo)
IC50 [1]: 120 nM

Reference: ChEMBL document CHEMBL1155791, “A novel Syk family kinase inhibitor: design, synthesis, and structure-activity relationship of 1,2,4-triazolo[4,3-c]pyrimidine and 1,2,4-triazolo[1,5-c]pyrimidine derivatives” (Bioorg Med Chem, 2008)
